Experimental data from article PMC5874133 (Science immunology, 2018).
Ends that are not written are not given here.

Columns and labels:
[1] = tested on: D222D clone 2 or a MelanA26–35-reactive clone vs. cognate peptide-pulsed LCLs; test: inhibition of lysis of cognate peptide-pulsed LCLs by CD8^+ T-cell clones; format: cell-based, human; settings: D222D clone 2 or MelanA26–35-reactive clone; 4 h, E/T 1/1; triplicate; Fig. 1F
[2] = tested on: ZnT8_186–194-reactive CD8^+ T-cell clones; test: effect on MMr staining of ZnT8_186–194-reactive CD8^+ T-cell clones; format: cell-based, human; settings: normalized MMr fluorescence intensities between clones; Fig. 2B
[3] = target: recombinant HLA-A2 molecules (Homo sapiens, UniProt P04439, D140Y/D185E/D98H/E176V/E277Q/G131W/G231S/I119V/I121R/I166T/I218V/L300P/L318F/N151K/N90K/P208A/P217A/Q86G/Q94H/R138H/R169H/T345S); test: peptide binding to recombinant HLA-A2
[4] = tested on: ZnT8_186–194-reactive CD8^+ T-cell clone H017N; format: cell-based, human; settings: peptide-pulsed LCLs, 0.1 µM, 6 h, percent cytokine^+ cells, two experiments, p=0.008, Fig. 7E

| Compound | inhibition of lytic activity [1] | Kd [3] [nM] | also measured |
| --- | --- | --- | --- |
| C[C@H]1CCC/C=C/[C@@H]2C[C@H](O)C[C@H]2[C@H](O)/C=C/C(=O)O1 [brefeldin A] | marginally | – | – |
| C/C=C/[C@H]1O[C@@](O)([C@@H](C)[C@H](O)[C@H](C)[C@H]2OC(=O)/C(OC)=C/C(C)=C/[C@@H](C)[C@@H](O)[C@@H](CC)[C@@H](O)[C@H](C)C/C(C)=C/C=C/[C@@H]2OC)C[C@@H](O[C@H]2C[C@@H](O)[C@H](OC(N)=O)[C@@H](C)O2)[C@@H]1C [concanamycin A] | inhibited significantly | – | – |
| Cc1nc(Nc2ncc(C(=O)Nc3c(C)cccc3Cl)s2)cc(N2CCN(CCO)CC2)n1 [dasatinib] | – | – | effect on variability of MMr fluorescence intensity [2]: reduced variability |
| AVAANIVLTV [ZnT8_185–194] | – | 207 | – |
| KAANIVLTV [B. stercoris mimotope] | – | – | agonist potency relative to native ZnT8_186–194 peptide [4]: stronger agonist potency |
| VAANIVLTV [ZnT8_186–194] | – | 15 | – |
